Measurements reported in patent publication US9056098B2, “Hemoglobin-based oxygen carrier-containing pharmaceutical composition for cancer targeting treatment and prevention of cancer recurrence” (Vision Global Holdings Ltd., priority 2012, dated 2015).
Where “and” joins values, the source holds several entries; their conditions need not be identical. Equal entries are not always repeated.

Tests used:
Type in all cases: cell-based
[1] = test system: MCF7 cells isolated from mammospheres (cancer stem cells); test: MTT assay on cancer stem cells from MCF7 mammospheres; conditions: Hb 0.2 g/dL, Bort 0.5 μM, 5FU 5 μM
Procedure: (§1) Cell viability is measured using a 3-(4,5-dimethylthiazol-2-yl)-2,5-diphenyltetrazolium bromide (MTT) proliferation assay. Briefly, HepG2 or Huh7 cells are seeded in a 96-well flat-bottomed microplate (6000 cells/well) and cultured in 100 μL growth medium at 37° C. and 5% CO2 for 24 h. Cell culture medium in each well is then replaced by 100 μL cell growth medium, containing either no drug, Hb alone or Hb with another chemotherapeutics at their IC50 concentrations. Incubation of Hb for 24 h, 20 μL MTT labeling reagent (5 mg/mL in PBS solution) is added to each well for further 4 h at 37° C. The growth medium is removed gently, and 200 μL DMSO is then added to each well as solubilizing agent to dissolve the formazan crystals completely. The absorbance at the wavelength of 570 nm is measured by Multiskan EX (Thermo Electron Corporation), and each data point represents the means±SD from triplicate wells.
To test sensitivity of the cancer stem cells to chemotherapeutic agent alone or to the combined therapy of hemoglobin-based oxygen carrier and the chemotherapeutic agent, different sets of chemotherapeutic agent and/or the hemoglobin-based oxygen carrier of the present invention are administered to MCF7 cells isolated from mammospheres which are obtained at later passages, e.g. passages 7 and 8. Before testing the sensitivity of the cancer stem cells, the drug resistance of CD44+/CD24− to chemotherapeutic agent is shown in FIG. 32. Unsorted MCF7 cells and CD44+/CD24− sorted cells are incubated with DMSO (as control) and 90 nM of Taxol for 16 hours and 4 days. Phase contrast images (FIG. 32) for each set of sample are taken at each time interval (16 hours and 4 days) and the sorted cells after Taxol treatment for 4 days are further tested by MTT assay (as described in Example 3) to confirm the drug resistance of these cells to chemotherapeutic agent.
The high resistance of the CSCs to chemotherapeutic agent is further confirmed by the results of MTT assays on single cells from two passages (P7 and P8) after the mammospheres are treated with different combination of chemical(s) for at least 24 hours before trypsinization of mammospheres. The mammospheres are grown under the hypoxic conditions (5% CO2, 1.1% 02) to mimic the physiological environment of a tumor. Different combination of chemical(s) used in the MTT assays include the Hb alone (0.2 g/dL), Bortezomib (“Bort”, 0.5 μM) alone, 5-fluorouracil (“5FU”, 5 μM) alone, or any combination of the above. In case of the combinational drug (i.e. Hb+at least one chemotherapeutic agent), the trypsinized cells are incubated with 0.2 g/dL of Hb for 24 hours followed by the addition of the intended chemotherapeutic agent(s) and incubated for another 24 hours. In the normalized value, “1” represents 100% of survival rate; 0.75 represents 75% of survival rate, etc.

[2] = test system: HepG2 cells; test: MTT cytotoxicity assay in HepG2 cells
Procedure: (§2) HepG2 and Huh7 cell lines are used. These cells are cultured in DMEM (Invitrogen) with 10% Fetal bovine serum (FBS), 100 U/ml penicillin and 100 μg/ml streptomycin at 37° C. For normoxic condition, cells are incubated with ambient O2 concentration and 5% CO2; for hypoxic condition, cells are incubated with 0.1-0.5% O2 (Quorum FC-7 automatic CO2/O2/N2 gas mixer) and 5% CO2.
as §1

[3] = test system: Huh7 cells; test: MTT cytotoxicity assay in Huh7 cells
Procedure: as §2, §1

[4] = test system: CD44+/CD24− sorted MCF7 cells; test: Taxol resistance of CD44+/CD24− sorted MCF7 cells (morphology, MTT); conditions: 90 nM
Procedure: as §1
In order to test the effect of hemoglobin-based oxygen carrier on the cancer stem cells in a tumor, the MCF7 cells are incubated under hypoxic condition (5% CO2 and 1.1% O2) for 9-20 days before passing to the cell sorter where two filters are used: PE-A for CD24 marker while APC-A for CD44 marker. Quadrant 1 where cells are positive to CD44 and negative to CD24 (FIG. 31) are sorted for further analysis. […]

[5] = Mammosphere (P7) under Hypoxic condition
[6] = Mammosphere (P8) under Hypoxic condition
[7] = Homo sapiens, HepG2, HepG2 hypoxic
[8] = Homo sapiens, HepG2, HepG2 normoxic
[9] = Homo sapiens, Huh-7, Huh7 hypoxic
[10] = Homo sapiens, Huh-7, Huh7 normoxic

SMILES	Absorbance (replicates) [1, 5]	Normalized absorbance (replicates), 1 represents 100% of survival rate [1, 5]	Normalized absorbance Avg, 1 represents 100% of survival rate [1, 5]	Absorbance (replicates) [1, 6]	Normalized absorbance (replicates), 1 represents 100% of survival rate [1, 6]	Normalized absorbance Avg, 1 represents 100% of survival rate [1, 6]	IC50 [2, 7] [µM]	IC50 [2, 8] [µM]	IC50 [3, 9] [µM]	IC50 [3, 10] [µM]	resistance of Huh7 cells as compared to HepG2 cells ([3]; hypoxic condition) [fold]	resistance of Huh7 cells as compared to HepG2 cells ([3]; normoxic condition) [fold]	IC50 ([2]; HepG2 hypoxic) [µM]	IC50 ([2]; HepG2 normoxic) [µM]	IC50 ([3]; Huh7 hypoxic) [µM]	IC50 ([3]; Huh7 normoxic) [µM]	survival (MTT) ([4]; 4 days)	mammosphere formation ([4]; both unsorted and CD44+/CD24− sorted cells)
O=c1[nH]cc(F)c(=O)[nH]1 [5FU, 5-fluorouracil]	0.171 and 0.197 and 0.139 and 0.143 and 0.169	0.7566 and 0.8942 and 0.9048 and 1.042 and 0.7355	0.8667	0.155 and 0.165 and 0.129 and 0.157	0.7416 and 0.7895 and 0.6172 and 0.7512	0.7249	4000	4000	4000	3500	–	–	–	–	–	–	–	–
CC(C)C[C@H](NC(=O)[C@H](Cc1ccccc1)NC(=O)c1cnccn1)B(O)O [Bortezomib]	0.178 and 0.172 and 0.177 and 0.163 and 0.174	0.8624 and 0.9206 and 0.9418 and 0.9101 and 0.9365	0.9143	0.169 and 0.166 and 0.159 and 0.155	0.8086 and 0.7943 and 0.7608 and 0.7416	0.7763	0.7	0.5	60	55	86	110	–	–	–	–	–	–
N.N.[Cl][Pt][Cl] [Cisplatin]	–	–	–	–	–	–	–	–	–	–	–	–	170	130	100	70	–	–
COc1cccc2c1C(=O)c1c(O)c3c(c(O)c1C2=O)C[C@@](O)(C(=O)CO)C[C@@H]3O[C@H]1C[C@H](N)[C@H](O)[C@H](C)O1 [Doxorubicin]	–	–	–	–	–	–	30	10	6	5	–	–	–	–	–	–	–	–
CC(=O)O[C@H]1C(=O)[C@@]2(C)[C@H]([C@H](OC(=O)c3ccccc3)[C@]3(O)C[C@H](OC(=O)[C@H](O)[C@@H](NC(=O)c4ccccc4)c4ccccc4)C(C)=C1C3(C)C)[C@]1(OC(C)=O)CO[C@@H]1C[C@@H]2O [Taxol]	–	–	–	–	–	–	–	–	–	–	–	–	–	–	–	–	about 96%	seem to be inhibited
